Laboratory results published in publication PMC4319692 (Molecular Pharmaceutics, 2014).

Experiment: Metabolic stability in human liver microsomes
Assay type: in vitro ADME
Conditions: 10 μM, pooled human liver microsomes 1 mg/mL with cofactors, 2 h

## C[C@]12CC[C@H]3[C@@H](CCC4=CC(=O)CC[C@@]43C)[C@@H]1CC[C@@H]2O [testosterone]
  decrease (disappearance) of parent compound: more than 95%
